Earlier results on 1 compound are cited in patent US20210361677A1, “DOSING METHODS FOR TREATING INFLAMMATORY BOWEL CONDITIONS” (priority 2020, published 2021).

Structures are written as SMILES.

For the series the following is noted: enema by prior methods, two patients, FIG. 1.

Turning to `Nc1ccc(O)c(C(=O)O)c1` [5-ASA, 5-aminosalicylic acid], the “systemic (plasma) levels of 5-ASA after bowel movements” value is on record as “dramatically lower”.
